From patent US3930838A, “S-benzyl-N,N-disec-butylthiocarbamate and its use as a rice field herbicide and a rice growth stimulant” (priority 1970, dated 1976)

Legend:
[1] = system: rice; test: Comparative selectivity test on rice in submerged culture, air-conditioned atmosphere (Example 7); format: in vivo; conditions: for Main root, average value per plant / Shoot, average value per plant / Sprouted plants: 24 days
Description: (§1) Into a set of cylindrical pots having a 200 cm^2 internal surface, sieved rice field earth in a quantity of 1 kg. per pot was introduced. After leveling and wetting with 200 cc. of water, the earth surface of the pots was uniformly sprayed with hydroacetone solutions containing, respectively, 0, 0.2, 0.3, and 0.4% active product (a.p.). 4 Ml. of the solution were sprayed onto each pot, so that the amount of active product in a set of four pots was 0, 4, 6, and 8 kg./ha., respectively. Immediately after spraying, each pot was filled with water to a level of 7 cm. over the soil surface. Thereafter, the sowing was carried out at the rate of 15 pre-germinated rice seeds per pot. Three repetitions were performed for each treatment. The pots were kept in an air-conditioned atmosphere with a daily temperature variation between 10° and 25°C and a 14 hour per day light period. After 24 days, the percentage of sprouted plants and the length of the shoot were recorded.

[2] = system: Echinocloa crus galli; test: Weeding activity in screening conditions (Example 12); format: in vivo; conditions: 25 days
From the text: Two sets of small square tanks having 11 cm. sides, filled with field earth admixed with 30% of sand, were sowed at a depth of 0.5-1 cm. with the following grass species: Echinocloa crus galli, Setaria italica, Alopecurus myosiuroides, Lolium italicum, Digitaria sanguinalis, Avena fatua, Agrostis segetum, and Dactylis glomerata. After sowing, the earth surface of the tanks was uniformly sprayed with 2.4 cc./tank of hydroacetone solutions containing, respectively, 0, 0.05, 0.10, 0.20 and 0.30% of M3432 and of molinate, respectively, in order to obtain doses thereof corresponding to 0, 1, 2, 4, and 6 kg./ha., respectively.
Only one set of small tanks was covered with a 1 cm. layer of earth just after the treatment. All of the tanks were kept in an air-conditioned chamber identical with that described in Example 7, and were watered every day. 25 days after the treatment, the final results were examined, attributing to each treatment the following scale of values: […]

[3] = system: rice; test: Further test on rice in submerged culture at high doses (Example 8); format: in vivo; conditions: 33 days
Description: as §1
In view of the foregoing results, a further test was conducted according to the methodology of Example 7. During such test, M3432 was employed in quantities of 10, 20, and 30 kg./ha. The results were gathered 33 days after the treatments.

[4] = system: Echinocloa spp.; test: Post emergence hothouse test No. 1 (Example 16); format: in vivo; conditions: 4, 6, and 8 kg./ha., 3 days; plants 3-4 cm. at treatment
Description: A set of boxes having a 1,000 cm^2 internal surface was prepared in a hothouse according to the method described in Example 9. The boxes were sowed with Echinocloa spp. (70 seeds per box). After saturation of the soil, and as soon as the infesting plants emerged from the soil, the boxes were flooded with a 7 cm. layer of water. When the plants reached a maximum height of 3-4 cm., the treatment was effected by spraying the flooding water surfaces with hydroacetone solutions according to the modalities employed in Example 9. 3 days after the treatment, the following results were observed: […]

[5] = system: rice; test: Outdoor comparison of rice stimulating action of M3432 with lower homologues and isomers (Example 11); format: in vivo; conditions: 21 days after sowing
Description: In the province of Pavia, a test was carried out with outdoor treatments in a loam soil, on rice plots having a 12 m^2 surface each.
Formulations of 20% M3432 in emulsifiable oil were compared with 20% formulations in emulsifiable oil of S-benzyl-N,N-diisopropyl thiocarbamate; S-benzyl-N,N-diisobutylthiocarbamate; and S-benzyl-N,N-din.butylthiocarbamate employing quantities of 4, 6 and 20 kg./ha.
For each treatment, the results were gathered on 20 plants 21 days after the sowing.

[6] = system: rice; test: Hothouse test on rice in flooded culture, 66 days (Example 9b); format: in vivo, rice cv. RIBE
From the text: A test was arranged in a hothouse on a set of boxes having a 1,000 cm^2 internal surface. 18 Kg. of sieved rice field earth were put into each box. After leveling, the earth surfaces of each of a set of six boxes were uniformly sprayed with hydroacetone solutions containing, respectively, 0, 0.5, 0.75, 1, 1.25, and 1.5% of M3432. 20 Cc. of solution was sprayed into each box, corresponding to 0, 10, 15, 20, 25, and 30 kg./ha., respectively. Each box was flooded with a 10 cm. water layer measured from the earth surface. The sowing was carried out immediately afterwards with a pre-germinated (cv) RIBE rice seed, employing a quantity of 40 seeds per box.
A second test was carried out in a hothouse, employing the identical method and under the identical conditions as in Example 9a.

[7] = Treated surface covered with 1 cm earth layer, 2 kg./ha.
[8] = Treated surface covered with 1 cm earth layer, 4 kg./ha.
[9] = Treated surface covered with 1 cm earth layer, 6 kg./ha.

## CCSC(=O)N1CCCCCC1 [Molinate, ethyl-1-hexamethylene-imino-carbothiolate, reference compound]
[1]; 4 kg./ha.
  Main root, average value per plant: 7.4 cm.
  Shoot, average value per plant: 15.3 cm.
  Sprouted plants: 42.3%
[1]; 6 kg./ha.
  Main root, average value per plant: 3.9 cm.
  Shoot, average value per plant: 8.2 cm.
  Sprouted plants: 20.0%
[1]; 8 kg./ha.
  Main root, average value per plant: 4.6 cm.
  Shoot, average value per plant: 6.6 cm.
  Sprouted plants: 11.0%
[1]; rice growth unfavorably affected even at 6 kg./ha.
  Margin of safety on rice: narrow margin of safety
[2]; Surface, 2 kg./ha.
  Weeding activity: 2
[2]; Surface, 4 kg./ha.
  Weeding activity: 1/2
[2]; Surface, 6 kg./ha.
  Weeding activity: 1/2
[2]; [7]
  Weeding activity: 3
[2]; [8]
  Weeding activity: 3
[2]; [9]
  Weeding activity: 3/4

## CCC(C)N(C(=O)SCc1ccccc1)C(C)CC (stereo not shown) [M3432, S-benzyl-N,N-disec.butylthiocarbamate]
[3]; 10 kg./ha.
  Main root: 11.3 cm.
  Secondary roots: 4.4 number per plant
  Shoot: 19.97 cm.
  Sprouted plants: 71.1%
[3]; 20 kg./ha.
  Main root: 10.6 cm.
  Secondary roots: 5.1 number per plant
  Shoot: 20.9 cm.
  Sprouted plants: 77.7%
[3]; 30 kg./ha.
  Main root: 11.1 cm.
  Secondary roots: 5.4 number per plant
  Shoot: 23.4 cm.
  Sprouted plants: 80.0%
[4]
  Shoot: 0 cm.
  Stand: 0%
[5]; 4 kg./ha.
  Main roots: 5.55 No.
  Secondary roots: 2.52 No.
  Shoot: 7.11 cm.
[5]; 6 kg./ha.
  Main roots: 5.73 No.
  Secondary roots: 2.63 No.
  Shoot: 7.34 cm.
[5]; 20 kg./ha.
  Main roots: 6.76 No.
  Secondary roots: 2.63 No.
  Shoot: 7.68 cm.
[1]; 4 kg./ha.
  Main root, average value per plant: 8.3 cm.
  Shoot, average value per plant: 17.8 cm.
  Sprouted plants: 60.0%
[1]; 6 kg./ha.
  Main root, average value per plant: 10.4 cm.
  Shoot, average value per plant: 21.1 cm.
  Sprouted plants: 53.3%
[1]; 8 kg./ha.
  Main root, average value per plant: 10.1 cm.
  Shoot, average value per plant: 23.9 cm.
  Sprouted plants: 77.7%
[2]; Surface, 1 kg./ha.
  Weeding activity: 3
[2]; Surface, 2 kg./ha.
  Weeding activity: 3/4
[2]; Surface, 4 kg./ha.
  Weeding activity: 4/3
[2]; Surface, 6 kg./ha.
  Weeding activity: 4
[2]; [7]
  Weeding activity: 4/3
[2]; [8]
  Weeding activity: 4
[2]; [9]
  Weeding activity: 4
[6]; 10 kg./ha.
  Main root: 12.64 cm.
  Roots, weight on dry basis: 5.550 g. per 100 plant
  Secondary roots: 12.20 No.
  Shoot: 16.74 cm.
  Shoot, weight on dry basis: 8.000 g. per 100 plant
  Sprouted plants: 45.0%
[6]; 15 kg./ha.
  Main root: 13.54 cm.
  Roots, weight on dry basis: 6.800 g. per 100 plant
  Secondary roots: 13.30 No.
  Shoot: 18.16 cm.
  Shoot, weight on dry basis: 11.800 g. per 100 plant
  Sprouted plants: 45.0%
[6]; 20 kg./ha.
  Main root: 17.16 cm.
  Roots, weight on dry basis: 10.480 g. per 100 plant
  Secondary roots: 21.00 No.
  Shoot: 26.00 cm.
  Shoot, weight on dry basis: 18.050 g. per 100 plant
  Sprouted plants: 60.0%
[6]; 25 kg./ha.
  Main root: 10.26 cm.
  Roots, weight on dry basis: 4.250 g. per 100 plant
  Secondary roots: 10.05 No.
  Shoot: 15.00 cm.
  Shoot, weight on dry basis: 6.875 g. per 100 plant
  Sprouted plants: 40.0%
[6]; 30 kg./ha.
  Main root: 8.21 cm.
  Roots, weight on dry basis: 2.800 g. per 100 plant
  Secondary roots: 8.00 No.
  Shoot: 14.50 cm.
  Shoot, weight on dry basis: 5.050 g. per 100 plant
  Sprouted plants: 40.0%
